Where two headings read alike, the source gives them in different places. Values belong to the molecule of their own block, whether it stands above or below them.
Assays:
CYP3A4 = CYP3A4 (Homo sapiens, UniProt P08684)
human CYP2D6 [1] = target: T1, human CYP2D6 (Homo sapiens, UniProt P10635); assay: biochemical
human CYP2C19 [2] = target: T2, human CYP2C19 (Homo sapiens, UniProt P33261); assay: biochemical; conditions: for IC50: CYP2C19 IC50 (half-maximal inhibitory concentration)
human CYP1A2 [3] = target: T3, human CYP1A2 (Homo sapiens, UniProt P05177); assay: biochemical; conditions: for IC50: CYP1A2 IC50 (half-maximal inhibitory concentration)
T3 sequence (P05177 1-516): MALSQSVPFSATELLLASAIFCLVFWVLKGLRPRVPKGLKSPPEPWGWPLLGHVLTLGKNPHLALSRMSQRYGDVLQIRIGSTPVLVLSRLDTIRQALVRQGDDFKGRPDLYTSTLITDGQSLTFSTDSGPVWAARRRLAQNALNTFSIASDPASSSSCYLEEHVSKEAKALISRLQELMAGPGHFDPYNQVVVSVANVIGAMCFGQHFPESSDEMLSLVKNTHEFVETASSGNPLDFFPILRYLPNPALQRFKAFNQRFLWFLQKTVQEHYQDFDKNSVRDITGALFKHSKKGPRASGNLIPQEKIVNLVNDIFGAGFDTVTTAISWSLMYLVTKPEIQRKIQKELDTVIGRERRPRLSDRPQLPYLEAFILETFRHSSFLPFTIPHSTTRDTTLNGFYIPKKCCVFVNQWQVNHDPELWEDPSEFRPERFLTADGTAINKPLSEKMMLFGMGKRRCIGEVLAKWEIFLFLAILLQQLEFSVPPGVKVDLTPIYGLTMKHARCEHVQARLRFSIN

human CYP2C9 [4] = target: T4, human CYP2C9 (Homo sapiens, UniProt P11712); assay: biochemical
T4 sequence (P11712 whole entry): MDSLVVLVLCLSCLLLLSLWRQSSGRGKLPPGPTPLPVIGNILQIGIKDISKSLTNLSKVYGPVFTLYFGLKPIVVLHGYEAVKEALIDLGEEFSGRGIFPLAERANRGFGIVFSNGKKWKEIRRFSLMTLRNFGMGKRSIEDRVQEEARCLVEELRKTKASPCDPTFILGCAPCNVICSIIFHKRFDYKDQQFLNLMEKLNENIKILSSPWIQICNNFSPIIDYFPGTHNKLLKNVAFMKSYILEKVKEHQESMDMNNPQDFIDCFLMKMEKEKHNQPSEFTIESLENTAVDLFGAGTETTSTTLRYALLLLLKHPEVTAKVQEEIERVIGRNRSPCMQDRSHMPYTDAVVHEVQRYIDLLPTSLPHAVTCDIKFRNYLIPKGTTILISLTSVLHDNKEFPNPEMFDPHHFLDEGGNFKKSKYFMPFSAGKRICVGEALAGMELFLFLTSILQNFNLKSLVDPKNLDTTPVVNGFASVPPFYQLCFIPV

human CYP2C19 [5] = target: T2, human CYP2C19; conditions: for CYP2C19 Efficacy (in parenthesis): human
human CYP1A2 [6] = target: T3, human CYP1A2; conditions: for CYP1A2 Efficacy (in parenthesis): human
human CYP2C9 [7] = target: T4, human CYP2C9; conditions: human
human CYP2D6 [8] = target: T1, human CYP2D6; conditions: human
[9] = CYP2D6 AC50 (half-maximal activity concentration)
[10] = CYP2C19 AC50 (half-maximal activity concentration)
[11] = CYP1A2 AC50 (half-maximal activity concentration)
[12] = CYP2C9 AC50 (half-maximal activity concentration)

Chain of CYP3A4 (P08684 whole entry): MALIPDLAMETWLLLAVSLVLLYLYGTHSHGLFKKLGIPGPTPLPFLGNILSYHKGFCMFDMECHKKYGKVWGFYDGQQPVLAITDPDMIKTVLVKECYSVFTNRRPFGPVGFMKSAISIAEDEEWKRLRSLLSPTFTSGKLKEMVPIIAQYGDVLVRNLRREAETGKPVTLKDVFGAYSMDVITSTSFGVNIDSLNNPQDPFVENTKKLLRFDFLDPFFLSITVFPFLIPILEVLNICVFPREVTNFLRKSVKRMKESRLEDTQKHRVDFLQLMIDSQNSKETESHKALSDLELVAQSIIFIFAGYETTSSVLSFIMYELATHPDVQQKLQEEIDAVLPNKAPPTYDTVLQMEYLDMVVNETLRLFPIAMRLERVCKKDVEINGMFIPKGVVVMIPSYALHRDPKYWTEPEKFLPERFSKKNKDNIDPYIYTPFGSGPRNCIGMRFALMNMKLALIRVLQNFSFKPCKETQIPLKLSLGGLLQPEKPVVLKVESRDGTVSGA
T2 sequence (P33261 whole entry): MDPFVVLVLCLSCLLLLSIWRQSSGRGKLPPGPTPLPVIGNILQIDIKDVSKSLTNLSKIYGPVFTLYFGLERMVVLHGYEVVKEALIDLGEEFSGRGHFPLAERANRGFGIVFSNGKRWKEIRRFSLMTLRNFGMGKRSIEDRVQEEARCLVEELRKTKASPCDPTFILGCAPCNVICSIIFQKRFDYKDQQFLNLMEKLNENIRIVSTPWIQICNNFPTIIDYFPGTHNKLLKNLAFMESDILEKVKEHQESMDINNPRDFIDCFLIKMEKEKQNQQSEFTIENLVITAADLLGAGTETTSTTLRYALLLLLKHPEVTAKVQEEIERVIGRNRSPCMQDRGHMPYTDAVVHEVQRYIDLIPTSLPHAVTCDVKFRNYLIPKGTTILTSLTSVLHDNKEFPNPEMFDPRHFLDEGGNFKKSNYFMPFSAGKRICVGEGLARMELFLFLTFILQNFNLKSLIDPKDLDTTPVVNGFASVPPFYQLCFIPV
T1 sequence (P10635 whole entry): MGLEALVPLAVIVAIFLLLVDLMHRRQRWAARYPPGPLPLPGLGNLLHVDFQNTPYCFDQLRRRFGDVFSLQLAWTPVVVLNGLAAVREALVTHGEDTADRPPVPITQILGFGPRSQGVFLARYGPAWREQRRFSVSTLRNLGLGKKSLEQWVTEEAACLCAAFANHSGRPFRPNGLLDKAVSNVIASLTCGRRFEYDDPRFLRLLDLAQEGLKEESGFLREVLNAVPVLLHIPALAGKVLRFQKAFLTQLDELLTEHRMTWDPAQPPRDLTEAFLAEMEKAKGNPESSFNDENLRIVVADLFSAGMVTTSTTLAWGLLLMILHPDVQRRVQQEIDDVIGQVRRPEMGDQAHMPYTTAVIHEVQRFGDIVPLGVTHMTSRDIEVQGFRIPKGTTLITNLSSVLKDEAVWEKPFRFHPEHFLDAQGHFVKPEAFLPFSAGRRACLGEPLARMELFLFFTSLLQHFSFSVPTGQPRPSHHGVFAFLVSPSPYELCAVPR

SMILES: O=c1[nH]sc2ccccc12 [1,2-Benzisothiazolin-3-one]
- CYP3A4 AC50 (half-maximal activity concentration) (CYP3A4): Inconclusive inhibitor
- AC50 (human CYP2D6 [1]; [9]): 11.3 µM
- AC50 (human CYP2C19 [2]; [10]): 2.38 µM
- AC50 (human CYP1A2 [3]; [11]): 31.7 µM
- AC50 (human CYP2C9 [4]; [12]): 34.3 µM

SMILES: Oc1cc(Cl)c(Cl)c(Cl)c1 [3,4,5-Trichlorophenol]
- CYP3A4 AC50 (half-maximal activity concentration) (CYP3A4): Inconclusive inhibitor
- AC50 (human CYP2D6 [1]; [9]): 29 µM
- AC50 (human CYP2C19 [2]; [10]): 19.5 µM
- AC50 (human CYP1A2 [3]; [11]): 26.1 µM
- AC50 (human CYP2C9 [4]; [12]): 11.1 µM

- CYP2C19 AC50 (half-maximal activity concentration) (human CYP2C19 [5]): Inconclusive inhibitor
- CYP3A4 AC50 (half-maximal activity concentration) (CYP3A4): Inconclusive inhibitor
- AC50 (human CYP2D6 [1]): 61.3 µM
- AC50 (human CYP1A2 [3]): 32.1 µM
- AC50 (human CYP2C9 [4]): 9.08 µM
SMILES: Oc1ccc(-c2ccc(O)cc2)cc1 [4,4'-Biphenyldiol]

- CYP3A4 AC50 (half-maximal activity concentration) (CYP3A4; mean ± standard deviation from three experiments, activity call in words where no AC50): Inconclusive inhibitor
- AC50 (human CYP2D6 [1]): 63.5 ± 20.9 µM
- AC50 (human CYP2C19 [2]): 31.8 ± 10.5 µM
- AC50 (human CYP1A2 [3]): 38.5 ± 2.51 µM
- AC50 (human CYP2C9 [4]): 0.77 ± 0.4 µM
SMILES: O=C(c1ccc(O)cc1)c1ccc(O)cc1 [4,4'-Dihydoxybenzophenone]

- CYP1A2 AC50 (half-maximal activity concentration) (human CYP1A2 [6]): Inconclusive inhibitor
- CYP3A4 AC50 (half-maximal activity concentration) (CYP3A4): Inconclusive inhibitor
- AC50 (human CYP2D6 [1]): 30.9 µM
- AC50 (human CYP2C19 [2]): 36 µM
- AC50 (human CYP2C9 [4]): 3.66 µM
SMILES: Oc1ccc(Sc2ccc(O)cc2)cc1 [4,4'-Thiodiphenol]

- CYP3A4 AC50 (half-maximal activity concentration) (CYP3A4): Inactive
- AC50 (human CYP2D6 [1]): 66.7 µM
- AC50 (human CYP2C19 [2]): 4.75 µM
- AC50 (human CYP1A2 [3]): 43.2 µM
- AC50 (human CYP2C9 [4]): 5.88 µM
SMILES: O=S(=O)(c1ccccc1)c1ccc(Cl)cc1 [4-Chlorophenyl phenyl sulfone]

SMILES: O=C(c1ccccc1)c1ccc(O)cc1 [4-Hydroxybenzophenone]
- CYP3A4 AC50 (half-maximal activity concentration) (CYP3A4): Inactive
- AC50 (human CYP2D6 [1]; [9]): 36.1 µM
- AC50 (human CYP2C19 [2]; [10]): 31.7 µM
- AC50 (human CYP1A2 [3]; [11]): 29 µM
- AC50 (human CYP2C9 [4]; [12]): 2.7 µM

SMILES: CC(C)(C)c1ccc(O)c(O)c1 [4-tert-Butylcatechol]
- CYP3A4 AC50 (half-maximal activity concentration) (CYP3A4): Inactive
- AC50 (human CYP2D6 [1]; [9]): 9.07 µM
- AC50 (human CYP2C19 [2]; [10]): 13.6 µM
- AC50 (human CYP1A2 [3]; [11]): 60 µM
- AC50 (human CYP2C9 [4]; [12]): 73.7 µM

SMILES: Clc1ccc(CCC(Cn2ccnc2)Sc2c(Cl)cccc2Cl)cc1 (stereo not drawn) [Butoconazole nitrate]
- CYP1A2 Efficacy (in parenthesis) (human CYP1A2 [6]): 16.12 ± 1.09 (-93 ± 6) %
- CYP2C19 Efficacy (in parenthesis) (human CYP2C19 [5]): 0.04 ± 0.0 (-132 ± 17) %
- CYP2C9 Efficacy (in parenthesis) (human CYP2C9 [7]): 0.1 ± 0.02 (-98 ± 4) %
- IC50 (human CYP2D6 [1]; CYP2D6 IC50 (half-maximal inhibitory concentration)): 2.37 µM
- CYP2D6 Efficacy (in parenthesis) (human CYP2D6 [8]): 2.37 ± 0.15 (-100 ± 5) %
- IC50 (human CYP2C19 [2]): 0.04 µM
- IC50 (human CYP1A2 [3]): 16.1 µM
- IC50 (human CYP2C9 [4]; CYP2C9 IC50 (half-maximal inhibitory concentration)): 0.1 µM

SMILES: CCOP(=S)(OCC)SCSc1ccc(Cl)cc1 [Carbophenothion]
- CYP1A2 Efficacy (in parenthesis) (human CYP1A2 [6]): 8.84 ± 2.46 (-90 ± 2) %
- CYP2C19 Efficacy (in parenthesis) (human CYP2C19 [5]): 0.47 ± 0.18 (-138 ± 5) %
- CYP2C9 Efficacy (in parenthesis) (human CYP2C9 [7]): 1.13 ± 0.13 (-94 ± 12) %
- IC50 (human CYP2D6 [1]): 13.2 µM
- CYP2D6 Efficacy (in parenthesis) (human CYP2D6 [8]): 13.25 ± 2.38 (-84 ± 7) %
- IC50 (human CYP2C19 [2]): 0.47 µM
- IC50 (human CYP1A2 [3]): 8.84 µM
- IC50 (human CYP2C9 [4]): 1.13 µM

SMILES: NS(=O)(=O)c1ccc(Cl)c(S(N)(=O)=O)c1 [Clofenamide]
- CYP1A2 AC50 (half-maximal activity concentration) (human CYP1A2 [6]): Inactive
- CYP2C19 AC50 (half-maximal activity concentration) (human CYP2C19 [5]): Inactive
- CYP3A4 AC50 (half-maximal activity concentration) (CYP3A4): Inactive
- AC50 (human CYP2D6 [1]; [9]): 30.6 µM
- AC50 (human CYP2C9 [4]; [12]): 19.8 µM

SMILES: CCOP(=S)(OCC)Oc1ccc2c(C)c(Cl)c(=O)oc2c1 [Coumaphos]
- CYP1A2 Efficacy (in parenthesis) (human CYP1A2 [6]): 3.5 ± 0.6 (-95 ± 2) %
- CYP2C19 Efficacy (in parenthesis) (human CYP2C19 [5]): 0.32 ± 0.04 (-144 ± 23) %
- CYP2C9 Efficacy (in parenthesis) (human CYP2C9 [7]): 0.28 ± 0.02 (-103 ± 5) %
- IC50 (human CYP2D6 [1]): 5.34 µM
- CYP2D6 Efficacy (in parenthesis) (human CYP2D6 [8]): 5.34 ± 0.96 (-101 ± 7) %
- IC50 (human CYP2C19 [2]): 0.32 µM
- IC50 (human CYP1A2 [3]): 3.5 µM
- IC50 (human CYP2C9 [4]): 0.28 µM

Source: article PMC12155096 (International Journal of Molecular Sciences, 2025)
